In the supplement of paper PMC8671470:

Experiments:
Settings in all cases: 72 h
[1] = test system: BV-173
How it was run: (§1)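 Seeded in RPMI 1640 at densities within the linear growth range, fifteen myeloid leukaemia cell lines were dispensed into 384-well plates with acoustically pre-printed compounds spanning five tenfold doses from 1 to 10,000 nM, in duplicate. The plates were kept for 72 h at 37 °C in 5% CO2 before luminescent ATP viability was measured and normalised to vehicle and to a positive control at 10 µM. Curves were fitted with a four-parameter log-logistic model. The IC50 was taken from those curves.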

[2] = test system: HEL
How it was run: as §1

[3] = test system: HL-60
How it was run: as §1

[4] = test system: K-562
How it was run: as §1

[5] = test system: KCL-22
How it was run: as §1

[6] = test system: KG-1
How it was run: as §1

[7] = test system: KU-812
How it was run: as §1

[8] = test system: LAMA-84
How it was run: as §1

[9] = test system: ML-2
How it was run: as §1

[10] = test system: MOLM-13
How it was run: as §1

[11] = test system: MV4-11
How it was run: as §1

[12] = test system: Mono-Mac-6
How it was run: as §1

[13] = test system: NOMO-1
How it was run: as §1

[14] = test system: SHI-1
How it was run: as §1

[15] = test system: THP-1
How it was run: as §1

[16] = test system: BV-173; experiment: cell viability (% survival relative to DMSO control, bortezomib = 0%); higher = less cytotoxic
How it was run: (§2)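 Fifteen myeloid leukaemia cell lines were exposed to compounds at 1, 10, 100, 1000 or 10000 nM in 384-well plates for 72 h at 37 °C and 5% CO2. Viability was read by CellTiter-Glo luminescence and normalised, with vehicle as 100% and a 10 µM positive control as 0%. Values are percent survival averaged over duplicates.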

[17] = test system: HEL; experiment: as above
How it was run: as §2

[18] = test system: HL-60; experiment: as above
How it was run: as §2

[19] = test system: KCL-22; experiment: as above
How it was run: as §2

[20] = test system: KG-1; experiment: as above
How it was run: as §2

[21] = test system: KU-812; experiment: as above
How it was run: as §2

[22] = test system: LAMA-84; experiment: as above
How it was run: as §2

[23] = test system: ML-2; experiment: as above
How it was run: as §2

[24] = test system: MOLM-13; experiment: as above
How it was run: as §2

[25] = test system: MV4-11; experiment: as above
How it was run: as §2

[26] = test system: Mono-Mac-6; experiment: as above
How it was run: as §2

[27] = test system: NOMO-1; experiment: as above
How it was run: as §2

[28] = test system: SHI-1; experiment: as above
How it was run: as §2

[29] = test system: THP-1; experiment: as above
How it was run: as §2

[30] = test system: HL-60; experiment: area under dose-response curve (viability, 1 nM-10 uM) (fraction (0-1)); higher = more sensitive
How it was run: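 In 384-well plates, the full library was rescreened in duplicate on HL-60 cells in RPMI 1640 with 10% FBS, at 1–10,000 nM in five tenfold concentrations, for 72 h at 37 °C, 5% CO2. Each run also held DMSO or 100 nM of one of three metabolic inhibitors. Viability was measured by CellTiter-Glo and normalised to DMSO wells and to wells with proteasome inhibitor, present at 10 μM. Any area under the curve comes from four-parameter log-logistic fitting with drc and PharmacoGx.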

CCCCN1C[C@H](O)[C@@H](O)[C@H](O)[C@H]1CO [Miglustat]
Settings | IC50 (cell viability) [µM]
[1] | > 10
[2] | > 10
[3] | > 10
[4] | > 10
[5] | > 10
[6] | > 10
[7] | > 10
[8] | > 10
[9] | > 10
[10] | > 10
[11] | > 10
[12] | > 10
[13] | > 10
[14] | > 10
[15] | > 10

Settings | area under dose-response curve, co-treatment: AZD3965 100 nM | area under dose-response curve, co-treatment: DMSO vehicle | area under dose-response curve, co-treatment: GSK2194069 100 nM | area under dose-response curve, co-treatment: pictilisib 100 nM | cell viability, 1 nM [%] | cell viability, 10 nM [%] | cell viability, 100 nM [%] | cell viability, 1000 nM [%] | cell viability, 10000 nM [%]
[16] | – | – | – | – | 90.7 | 104 | 95.6 | 97.8 | 86.8
[17] | – | – | – | – | 92.6 | 103 | 95.2 | 101 | 93.6
[18] | – | – | – | – | 87.6 | 81.8 | 98.7 | 101 | 91.8
[19] | – | – | – | – | 90.9 | 82.1 | 97.8 | 98.1 | 82.9
[20] | – | – | – | – | 92.6 | 102 | 94.8 | 103 | 93.2
[21] | – | – | – | – | 87.9 | 94.6 | 89.5 | 105 | 86.7
[22] | – | – | – | – | 94.3 | 97.8 | 96.4 | 103 | 92.8
[23] | – | – | – | – | 95.4 | 112 | 86.5 | 101 | 94.9
[24] | – | – | – | – | 90 | 102 | 90.7 | 93.9 | 90.8
[25] | – | – | – | – | 99.2 | 91.3 | 103 | 94.4 | 92.2
[26] | – | – | – | – | 82.9 | 90.4 | 92.4 | 95.4 | 92.7
[27] | – | – | – | – | 94.3 | 98.4 | 94 | 103 | 90
[28] | – | – | – | – | 106 | 93 | 102 | 98.6 | 88.7
[29] | – | – | – | – | 91.1 | 93.3 | 89.6 | 102 | 94.7
[30] | < 0.0301 | < 0.0301 | < 0.0301 | < 0.0301 | – | – | – | – | –
